# According to paper PMC10709327, “A class of secreted mammalian peptides with potential to expand cell-cell communication” (Nature Communications, 2023):
# Where “and” joins values, the source holds several entries; their conditions need not be identical. Identical values can stand only once. Where a SMILES comes first, the peptide text is derived from it. [ ]: non-standard residue; d: D form. pGlu = O=C1CC[C@@H](C(=O)O)N1
# Experiments:
# [1] = test system: diet-induced obese male mice; experiment: 3-day food intake and body weight under daily dosing; assay type: in vivo, mouse; conditions: for Food Intake: 50 mg/kg
# Protocol: Fig. 5 Functional studies of […] in feeding and energy balance in mice. a Schematic of the primary amino acid sequence for full-length mouse GDF15 preproprotein and annotation of CAP-GDF15 sequence as well as the canonical GDF15 hormone sequence. b–d Food intake (b), respiratory exchange ratio (RER, c), and ambulatory activity (d) of 12–16-week diet-induced obese male mice following a single treatment of CAP-GDF15 (50 mg/kg, intraperitoneal) or vehicle control. e–g Food intake (e), RER (f), and ambulatory activity (g) of 12–16-week diet-induced obese male mice following a single treatment of scrambled CAP-GDF15 (50 mg/kg, intraperitoneal, scrambled sequence: pGlu-[…]-NH2) or vehicle control. h, i 3-day food intake (h) and body weight (i) of 12–16-week diet-induced obese male mice following treatment with CAP-GDF15 or scrambled CAP-GDF15 (50 mg/kg/day, IP), or vehicle control. Data are shown as means ± SEM. b–d, N = 12 mice/group; for e, f N = 8 mice/group; for h N = 7 food cages for vehicle and CAP-GDF15 groups and N = 5 for the scrambled peptide group; for i N = 14 mice for the vehicle group, N = 13 for the CAP-GDF15 group, and N = 5 for the scrambled peptide group. b–i injection occurred at time T = 0 (5:00 pm) and data were collected for the following 16 hrs. For (b-i), p values were calculated by two-way ANOVA. Source data are provided as a Source Data file.
# Lastly, to determine whether the acute food intake suppressive effects of CAP-GDF15 would lead to long-term suppression of feeding and obesity, we administered CAP-GDF15 or scrambled CAP-GDF15 (50 mg/kg/day, IP), or vehicle control to diet-induced obese mice. Food intake and body weight were monitored over a three-day period. A durable suppression of food intake in CAP-GDF15-treated mice was over the three-day experiment (Vehicle, 7.3 ± 0.5 g/mouse; […], 4.1 ± 0.9 g/mouse/day, P < 0.05, Fig. 5h). Consequently, and as expected, an increasing reduction in body weight was also detected (Vehicle, +0.1 ± 0.3 g/mouse; CAP-GDF15, −1.9 ± 0.3 g/mouse, P < 0.001, Fig. 5i). Importantly, mice treated with the scrambled CAP-GDF15 peptide were indistinguishable in body weight or food intake from control mice (P > 0.05 versus vehicle-treated mice, Fig. 5h, i).
# Animal experiments were performed according to a procedure approved by the Stanford University Administrative Panel on Laboratory Animal Care. Mice were maintained in 12-h light-dark cycles at 22 °C and about 50% relative humidity and fed a standard irradiated rodent diet. Where indicated, a high-fat diet (D12492, Research Diets 60% kcal from fat) was used. Male C57BL/6 J (stock number 000664) and male C57BL/6 J DIO mice were purchased from the Jackson Laboratory (stock number 380050). For studies in high-fat diet-fed mice, peptides were dissolved in 18:1:1 (by volume) of saline:Kolliphor EL (Sigma Aldrich):DMSO and administered to mice by intraperitoneal injections at a volume of 10 µl/g at the indicated doses for the indicated times. For lipopolysacchardide injection, LPS (Sigma, #L2880-10MG) was dissolved in saline and administered to mice at a volume of 5 µl/g at indicated dose. For fasting, food was removed from mice for 16 h. For running, a six-lane Columbus Instruments animal treadmill (product 1055-SRM-D65) was used with following 1 h protocol: 10 min at 6 m/min, 50 min at 18 m/min, and increase every 2 min by 2 m/min for the last 10 minutes, all at 12° incline. For all treatment experiments, mice were mock injected with the vehicle for 3–5 days until body weights were stabilized. Heparin plasma was harvested by submandibular bleed. For all experiments, mice were randomly assigned to treatment groups. Experimenters were not blinded to groups.
# [2] = CAP-GDF15 plasma concentration after administration; assay type: in vivo, mouse; conditions: for Plasma concentration after administration (Supplementary Figure 5a): 50 mg/kg, unit not given
# Protocol: To test this possibility, we administered a single dose of CAP-GDF15 (50 mg/kg, intraperitoneally) to diet-induced obese mice and measured whole body parameters of energy balance in metabolic chambers. At this dose, concentrations of plasma CAP-GDF15 rose by 5-fold from baseline at 30 min post-administration (Supplementary Fig. 5A). […] A corresponding and expected suppression of respiratory exchange ratio (RER) was also observed (Fig. 5c).
# Supplementary Figure 5. Additional measurements from metabolic chambers of mice treated with CAP-GDF15. a CAP-GDF15 plasma concentration after administration of CAP-GDF15 (50 mg/kg, intraperitoneal) or vehicle control. b-c VO2 (b) and VCO2 (c) of 12-16-week diet-induced obese male mice following a single treatment of CAP-GDF15 (50 mg/kg, intraperitoneal) or vehicle control. d-e VO2 (d) and VCO2 (e) of 12-16-week diet-induced obese male mice following a single treatment of scrambled CAP-GDF15 (50 mg/kg, intraperitoneal, scrambled sequence: p[…]-NH2) or vehicle control. f Acute food intake of 12-16-week diet-induced obese male mice following a single treatment of CAP-GDF15 (50 mg/kg, intraperitoneal), uncapped CAP-GDF15 (50 mg/kg, intraperitoneal), or vehicle control. For (a), N=3/group; (b-c), N=12/group; for (d-e), N=8/group; for (f), N=5/group.
# For (a-f), injection occurred at time T=0 (5:00pm). Data are shown as means ± SEM. For (b-i), p values were calculated by two-way ANOVA. Source data are provided as a Source Data
structure (smiles),measurement,setting,value
CC(C)C[C@H](NC(=O)[C@@H]1CCC(=O)N1)C(=O)N[C@@H](CCC(=O)O)C(=O)N[C@@H](CC(C)C)C(=O)N[C@@H](CCCNC(=N)N)C(=O)N[C@@H](CC(C)C)C(=O)N[C@@H](CCCNC(=N)N)C(=O)N[C@H](C(=O)N[C@@H](C)C(=O)N[C@@H](C)C(=O)NCC(=O)N[C@@H](CCCNC(=N)N)C(N)=O)C(C)C [CAP-GDF15] ([pGlu]LELRLRVAAGR-NH2),Food Intake,"[1]; 24 h, individual animal 1",0.5 g
same,Food Intake,"[1]; 24 h, individual animal 2",2.2 g
same,Food Intake,"[1]; 24 h, individual animal 3",1.3 g
same,Food Intake,"[1]; 24 h, individual animal 4",1.4 g
same,Food Intake,"[1]; 24 h, individual animal 5",0.3 g
same,Food Intake,"[1]; 24 h, individual animal 6",0.825 g
same,Food Intake,"[1]; 24 h, individual animal 7",0.525 g
same,Food Intake,"[1]; 48 h, individual animal 1",1.2 g
same,Food Intake,"[1]; 48 h, individual animal 2",5 g
same,Food Intake,"[1]; 48 h, individual animal 3",2.9 g
same,Food Intake,"[1]; 48 h, individual animal 4",4.1 g
same,Food Intake,"[1]; 48 h, individual animal 5",0.6 g
same,Food Intake,"[1]; 48 h, individual animal 6",1.8 g
same,Food Intake,"[1]; 48 h, individual animal 7",1.325 g
same,Food Intake,"[1]; 72 h, individual animal 1",2.9 g
same,Food Intake,"[1]; 72 h, individual animal 2",7.8 g
same,Food Intake,"[1]; 72 h, individual animal 3",4.9 g
same,Food Intake,"[1]; 72 h, individual animal 4",6.7 g
same,Food Intake,"[1]; 72 h, individual animal 5",0.8 g
same,Food Intake,"[1]; 72 h, individual animal 6",2.95 g
same,Food Intake,"[1]; 72 h, individual animal 7",2.775 g
same,body weight change over three days,"[1]; 50 mg/kg/day IP, diet-induced obese mice, mean ± SEM, N = 13 mice",−1.9 ± 0.3 g/mouse
same,rise of plasma CAP-GDF15 concentration from baseline,"[2]; 50 mg/kg intraperitoneal, 30 min post-administration, N = 3/group",~ 5 fold and 5 fold
same,Plasma concentration after administration (Supplementary Figure 5a),"[2]; 0 minutes (same values as vehicle), animal 1",2.565
same,Plasma concentration after administration (Supplementary Figure 5a),"[2]; 0 minutes (same values as vehicle), animal 2",0.7876
same,Plasma concentration after administration (Supplementary Figure 5a),"[2]; 0 minutes (same values as vehicle), animal 3",0.4564
same,Plasma concentration after administration (Supplementary Figure 5a),"[2]; 10 minutes, animal 1",3.639
same,Plasma concentration after administration (Supplementary Figure 5a),"[2]; 10 minutes, animal 2",4.514
same,Plasma concentration after administration (Supplementary Figure 5a),"[2]; 10 minutes, animal 3",3.221
same,Plasma concentration after administration (Supplementary Figure 5a),"[2]; 30 minutes, animal 1",2.641
same,Plasma concentration after administration (Supplementary Figure 5a),"[2]; 30 minutes, animal 2",3.3984
same,Plasma concentration after administration (Supplementary Figure 5a),"[2]; 30 minutes, animal 3",2.342
same,Plasma concentration after administration (Supplementary Figure 5a),"[2]; 60 minutes, animal 1",0.6432
same,Plasma concentration after administration (Supplementary Figure 5a),"[2]; 60 minutes, animal 2",0.7838
same,Plasma concentration after administration (Supplementary Figure 5a),"[2]; 60 minutes, animal 3",0.7186
same,Cmax,"[2]; mouse, plasma, ip, 50 mg/kg intraperitoneal, from approximately 1 nM endogenous level, read-out: maximum plasma concentration after dosing, as read from the figure by a reviewer",4 nM
